# According to patent publication US11999806B2, “Broad-spectrum polypeptide against enterovirus and application thereof” (WUHAN INSTITUTE OF VIROLOGY, CHINESE ACADEMY OF SCIENCES, priority 2018, dated 2024):
# Values joined by “and” are separate entries in the source; they are usually repeats but may differ in a detail not shown here. Identical values can stand only once. Like-named read-outs stand apart in the source and are kept apart here. No end group written: not given here.
# Assays:
# [1] = tested on: RD cells; assay: Cytotoxicity by CCK-8 in RD cells; format: cell-based; settings: RD cells; for Cell viability (%): 24 h; for cytotoxicity, result in words: CCK-8, 24 h
# Procedure: (§1) The experiment was performed as follows. • (1) RD cells were plated in a 96-well plate at 100 μl per well. • (2) After the cells reached 70%-80% confluence, the MEM medium containing 10% serum was replaced with a MEM medium containing 2% serum. Then, polypeptide P2 was added to generate gradient concentrations of 0.01 μM, 0.1 μM, 1 μM, 10 μM, and 100 μM (final concentration), respectively. • (3) The test was performed 24 hours after the addition of the polypeptide, and 10 μl of viable cell detection reagent CCK-8 was added to each well and mixed well. • (4) The plate was incubated at 37° C. for 2 h. • (5) The absorbance value at OD450 was measured with a microplate reader.
# as §1, with “P1” for “P2”, “concentrations),” for “concentration),”
# (§2) RD cells were used to test the antiviral effect of polypeptide P1. When RD cells reached 80% confluence, polypeptide P1 was added at concentrations of 0 μM (control group), 0.01 μM, 0.1 μM, 1 μM, 10 μM, and 100 μM, respectively. Three parallel wells were used for each concentration. The test was carried out 24 hours later, and the cell viability was detected using the CCK-8 kit.
# as §1, with “3A-TAT-EP” for “P2”, “concentrations),” for “concentration),”
# as §2, with “3A-TAT-EP.” for “P1.”, “3A-TAT-EP” for “P1”
# as §1, with “Then, 3A-EP-DRI or 3A-EP-PEG4-PA” for “Then, polypeptide P2”, “and 50” for “and 100”, “(final concentrations),” for “(final concentration),”
# as §2, with “polypeptides 3A-EP-DRI and 3A-EP-PEG4-PA.” for “polypeptide P1.”, “3A-EP-DRI or 3A-EP-PEG4-PA” for “P1”, “50” for “100”, “kit. […]” for “kit.”
# [2] = Cytotoxicity by CCK-8 in RD cells; format: cell-based; settings: human; for viability at 24 h, 0.01 µM: 0.01 μM polypeptide; for viability at 24 h, 0.1 µM: 0.1 μM polypeptide; for viability at 24 h, 1 µM: 1 μM polypeptide; for viability at 24 h, 10 µM: 10 μM polypeptide; for viability at 24 h, 20 µM: 20 μM polypeptide; for viability at 24 h, 30 µM: 30 μM polypeptide; for viability at 24 h, 40 µM: 40 μM polypeptide
# Procedure: as §1
# as §1, with “P1” for “P2”, “concentrations),” for “concentration),”
# as §2
# as §1, with “3A-TAT-EP” for “P2”, “concentrations),” for “concentration),”
# as §2, with “3A-TAT-EP.” for “P1.”, “3A-TAT-EP” for “P1”
# as §1, with “Then, 3A-EP-DRI or 3A-EP-PEG4-PA” for “Then, polypeptide P2”, “and 50” for “and 100”, “(final concentrations),” for “(final concentration),”
# as §2, with “polypeptides 3A-EP-DRI and 3A-EP-PEG4-PA.” for “polypeptide P1.”, “3A-EP-DRI or 3A-EP-PEG4-PA” for “P1”, “50” for “100”, “kit. […]” for “kit.”
# [3] = RD cells, 24 h, untreated = 100%, read-out: Cell viability (%)
# [4] = Table 1 summary, cell line not given, read-out: CC50
# [5] = RD cells, 24 h (Table 6), read-out: Cell viability (%)
# [6] = RD cells, 50 μM polypeptide, 24 h (Table 6), read-out: Cell viability (%)
compound,measurement,setting,value
RRRRRRRREEVRQYCRDQ [P2],Cell viability (%),"[1]; 0.01 μM polypeptide, untreated = 100%",104.6% and 102.7%
same,Cell viability (%),"[1]; 0.1 μM polypeptide, untreated = 100%",104% and 100.6%
same,Cell viability (%),"[1]; 1 μM polypeptide, untreated = 100%",105.4% and 98.81%
same,Cell viability (%),"[1]; 10 μM polypeptide, untreated = 100%",101.1% and 99.03%
same,Cell viability (%),"[1]; 100 μM polypeptide, untreated = 100%",106.8% and 94.07%
same,"cytotoxicity, result in words",[1],not toxic to cells within 100 μM
same,"viability at 24 h, 0.01 µM",[2]; [3],98%
same,"viability at 24 h, 0.1 µM",[2]; [3],94.4%
same,"viability at 24 h, 1 µM",[2]; [3],105%
same,"viability at 24 h, 10 µM",[2]; [3],96.6%
same,"viability at 24 h, 100 µM","[2]; RD cells, 100 μM polypeptide, 24 h, untreated = 100%, read-out: Cell viability (%)",90.1%
same,CC50 at 24 h,[2]; [4],> 100 µM
YGRKKRRQRRRGSGEEVRQYCR [ER],Cell viability (%),[1]; 0.46875 μM,99.34% and 100%
same,Cell viability (%),[1]; 2.34375 μM,98.07% and 102.7%
same,Cell viability (%),[1]; 4.6875 μM,100.8% and 103.1%
same,Cell viability (%),[1]; 9.375 μM,98.48% and 102.4%
same,Cell viability (%),[1]; 18.75 μM,96.59% and 98.47%
same,Cell viability (%),[1]; 37.5 μM,95.69% and 92.24%
same,Cell viability (%),[1]; 75 μM,89.79% and 90.36%
same,Cell viability (%),[1]; 150 μM,74.32% and 76.72%
same,Cell viability (%),[1]; 300 μM,43.39% and 48.41%
same,"cytotoxicity, result in words",[1],very low toxicity
same,"viability at 24 h, 0.46875 µM","[2]; RD cells, 0.46875 μM, 24 h, read-out: Cell viability (%)",99.9%
same,"viability at 24 h, 2.34375 µM","[2]; RD cells, 2.34375 μM, 24 h, read-out: Cell viability (%)",98.6%
same,"viability at 24 h, 4.6875 µM","[2]; RD cells, 4.6875 μM, 24 h, read-out: Cell viability (%)",99.1%
same,"viability at 24 h, 9.375 µM","[2]; RD cells, 9.375 μM, 24 h, read-out: Cell viability (%)",98.5%
same,"viability at 24 h, 18.75 µM","[2]; RD cells, 18.75 μM, 24 h, read-out: Cell viability (%)",99%
same,"viability at 24 h, 37.5 µM","[2]; RD cells, 37.5 μM, 24 h, read-out: Cell viability (%)",94.8%
same,"viability at 24 h, 75 µM","[2]; RD cells, 75 μM, 24 h, read-out: Cell viability (%)",89.7%
same,"viability at 24 h, 150 µM","[2]; RD cells, 150 μM, 24 h, read-out: Cell viability (%)",72.9%
same,"viability at 24 h, 300 µM","[2]; RD cells, 300 μM, 24 h, read-out: Cell viability (%)",42.2%
same,CC50 at 24 h,"[2]; RD cells, CCK-8, 24 h, Example 15, read-out: 50% cytotoxic concentration (CC50)",290 µM
YGRKKRRQRRRGSGEAVREYCK [BP8],Cell viability (%),"[1]; 3.0625 μM, CCK-8 4 h (Example 18)",103.1369% and 104.4%
same,Cell viability (%),"[1]; 6.125 μM, CCK-8 4 h (Example 18)",103.5158%
same,Cell viability (%),"[1]; 12.5 μM, CCK-8 4 h (Example 18)",99.35% and 104.8421%
same,Cell viability (%),"[1]; 25 μM, CCK-8 4 h (Example 18)",97.26% and 99.85%
same,Cell viability (%),"[1]; 50 μM, CCK-8 4 h (Example 18)",94.17% and 97.64%
same,Cell viability (%),"[1]; 100 μM, CCK-8 4 h (Example 18)",93.6% and 96.25%
same,Cell viability (%),"[1]; 200 μM, CCK-8 4 h (Example 18)",92.08%
same,"cytotoxicity, result in words",[1],not toxic to cells within 200 μM
same,"viability at 24 h, 3.0625 µM","[2]; RD cells, 3.0625 μM, 24 h, CCK-8 4 h (Example 18), read-out: Cell viability (%)",102%
same,"viability at 24 h, 6.125 µM","[2]; RD cells, 6.125 μM, 24 h, CCK-8 4 h (Example 18), read-out: Cell viability (%)",101%
same,"viability at 24 h, 12.5 µM","[2]; RD cells, 12.5 μM, 24 h, CCK-8 4 h (Example 18), read-out: Cell viability (%)",94.9%
same,"viability at 24 h, 25 µM","[2]; RD cells, 25 μM, 24 h, CCK-8 4 h (Example 18), read-out: Cell viability (%)",93.4%
same,"viability at 24 h, 50 µM","[2]; RD cells, 50 μM, 24 h, CCK-8 4 h (Example 18), read-out: Cell viability (%)",95.2%
same,"viability at 24 h, 100 µM","[2]; RD cells, 100 μM, 24 h, CCK-8 4 h (Example 18), read-out: Cell viability (%)",93.1%
same,"viability at 24 h, 200 µM","[2]; RD cells, 200 μM, 24 h, CCK-8 4 h (Example 18), read-out: Cell viability (%)",88.9%
same,CC50 at 24 h,[2]; [4],> 200 µM
CCCCCCCCCCCCCCCC(=O)NCCCC[C@H](NC(=O)CCOCCOCCOCCOCCNC(=O)[C@H](CCCCN)NC(=O)[C@H](C)NC(=O)[C@@H]1CCCN1C(=O)[C@@H](NC(=O)[C@@H](NC(=O)[C@H](Cc1c[nH]c2ccccc12)NC(=O)CNC(=O)[C@H](CCC(N)=O)NC(=O)[C@H](CCC(=O)O)NC(=O)[C@H](CCCNC(=N)N)NC(=O)[C@H](CS)NC(=O)[C@H](Cc1ccc(O)cc1)NC(=O)[C@H](CCC(N)=O)NC(=O)[C@H](CCCNC(=N)N)NC(=O)[C@@H](NC(=O)[C@H](CCC(=O)O)NC(=O)[C@@H](N)CCC(=O)O)C(C)C)[C@@H](C)CC)[C@@H](C)CC)C(=O)O [3A-EP-PEG4-PA],"cytotoxicity, result in words",[1],not toxic to cells within 50 μM
same,"viability at 24 h, 0.01 µM",[2]; [3],107%
same,"viability at 24 h, 0.1 µM",[2]; [3],94.9%
same,"viability at 24 h, 1 µM",[2]; [3],89.9%
same,"viability at 24 h, 10 µM",[2]; [3],95.3%
same,"viability at 24 h, 20 µM",[2]; [5],98.4%
same,"viability at 24 h, 30 µM",[2]; [5],99.5%
same,"viability at 24 h, 40 µM",[2]; [5],99.3%
same,"viability at 24 h, 50 µM",[2]; [6],94.8%
same,CC50 at 24 h,[2]; [4],> 100 µM
CC[C@@H](C)[C@@H](NC(=O)[C@H]1CCCN1C(C)=O)C(=O)N[C@@H](C(=O)N[C@H](Cc1c[nH]c2ccccc12)C(=O)NCC(=O)N[C@H](CCC(N)=O)C(=O)N[C@H](CCC(=O)O)C(=O)N[C@H](CCCNC(=N)N)C(=O)N[C@H](CS)C(=O)N[C@H](Cc1ccc(O)cc1)C(=O)N[C@H](CCC(N)=O)C(=O)N[C@H](CCCNC(=N)N)C(=O)N[C@@H](C(=O)N[C@H](CCC(=O)O)C(=O)N[C@H](CCC(=O)O)C(=O)N1CCC[C@@H]1C(=O)N1CCC[C@@H]1C(=O)N[C@H](CCCNC(=N)N)C(=O)N[C@H](CCCNC(=N)N)C(=O)N[C@H](CCCNC(=N)N)C(=O)N[C@H](CCC(N)=O)C(=O)N[C@H](CCCNC(=N)N)C(=O)N[C@H](CCCNC(=N)N)C(=O)N[C@H](CCCCN)C(=O)N[C@H](CCCCN)C(=O)N[C@H](CCCNC(=N)N)C(=O)NCC(=O)N[C@H](Cc1ccc(O)cc1)C(N)=O)C(C)C)[C@H](C)CC [3A-EP-DRI],"cytotoxicity, result in words",[1],not toxic to cells within 50 μM
same,"viability at 24 h, 0.01 µM",[2]; [3],106%
same,"viability at 24 h, 0.1 µM",[2]; [3],95.9%
same,"viability at 24 h, 1 µM",[2]; [3],91.3%
same,"viability at 24 h, 10 µM",[2]; [3],95.7%
same,"viability at 24 h, 20 µM",[2]; [5],101%
same,"viability at 24 h, 30 µM",[2]; [5],99%
same,"viability at 24 h, 40 µM",[2]; [5],89%
same,"viability at 24 h, 50 µM",[2]; [6],78.5%
same,CC50 at 24 h,[2]; [4],> 100 µM
